Read-outs that look alike come from different tables or passages of the source.
Tests used:
[1] = tested on: calcium channel L-type; assay: In vitro side effect profiling: calcium channel L-type; assay type: binding; settings: 10 μM, duplicate
Experimental: (§1) To assess Compound 212320's biological activity and selectivity, we performed an in vitro side effect profiling study. Seventy-one targets were tested at 10 μM in duplicate. These targets include neurotransmitter related receptors (30), steroids (2), ion channels (6), second messenger (1), prostaglandins (3), growth factors/hormones (4), brain/gut peptides (13), enzymes (5) and cytochrome p450 (7). […] Additionally, we performed a protein kinase profiling study. Compound 212320 was tested at 1 and 10 μM against 288 kinases. […] These studies indicate that Compound 212320 has high specificity and low side-effects/toxicity potential.

[2] = tested on: EAAT2; assay: [3H]glutamate uptake assay in PA-EAAT2 cells; assay type: cell-based, human; settings: PA-EAAT2 cells (FIG. 6D)
Experimental: (§2) Characterization and efficacy studies of a compound, Compound 212320 (FIG. 6A) is shown. […] In the absence of serum, PA-EAAT2 cells express low amounts of EAAT2 protein, although the recombinant EAAT2 mRNA are expressed (translational silencing); however, EAAT2 protein levels are increased when an activator is added to the culture (translational activation). This cell line was used for high-throughput screening to identify EAAT2 translational activators. To prioritize candidate compounds, we initially evaluated activation of EAAT2 protein in PA-EAAT2 cells. Promising compounds were further evaluated in primary dissociated neuron and astrocyte mixed cultures and then in mice. FIG. 6 presents the characterization of Compound 212320 in PA-EAAT2 cells. Compound 212320 increased EAAT2 protein levels in a dose—(FIG. 6B) and time—(FIG. 6C) dependent manner. Importantly, the induction occurred in a short amount of time (within 1-2 hr) and was sustained even up to 72 hr (data not show). Additionally, induction occurred at low nanomolar concentrations. […] (FIG. 6D).

[3] = In vivo pharmacokinetic evaluation in male C57Bl/6 mice (LCMS/MS); design: species or system mouse; settings: ip, single i.p. 3 mg/kg; for half-life: estimated
Experimental: Compound 212320 is compliant with Lipinski rules and lacks functionality that would predict overt toxicity or reactivity. This compound has a low molecular weight (293.38), cLogP value (3.28) and polar surface area (PSA) value (37.08 Å2) in the range typical of compounds that can penetrate the blood brain barrier. We conducted in vivo pharmacokinetic evaluation of LDN 212320 in male C57Bl/6 mice. After a single intraperitoneal (i.p.) administration of Compound 212320 (3 mg/kg), the plasma and brain concentrations were determined over an 8 hr period by LCMS/MS (FIG. 8A). […] The plasma and brain half-lives were estimated to be 2.63 and 2.64 hr, respectively. The average brain-to-plasma ratio was approximately 2 at all time points tested.

[4] = tested on: All other kinases (288 kinases tested); assay: Protein kinase profiling: all other of 288 kinases; assay type: biochemical; settings: 1 and 10 μM
Experimental: as §1

[5] = tested on: EAAT2 mRNA; assay: Quantitative real-time RT-PCR of EAAT2 mRNA in PA-EAAT2 cells; assay type: cell-based, human; settings: PA-EAAT2 cells (FIG. 6F)
Experimental: as §2

[6] = tested on: EAAT2 mRNA; assay: EAAT2 mRNA in brain by quantitative real-time RT-PCR after i.p. administration; assay type: in vivo, mouse; settings: FIG. 8D
Experimental: (§3) We next examined EAAT2 protein levels and glutamate uptake activities in brain following i.p. administration of Compound 212320 in C57BL/6 mice. Plasma membrane vesicles were prepared from mouse forebrains to measure functional EAAT2 protein. After a single i.p. dose of Compound 212320 at 40 mg/kg, EAAT2 protein levels and associated glutamate uptake increased to ˜1.5-2-fold at 2 hr and to ˜2-3-fold from 8 hr to 24 hr post-injection (FIG. 8B). Even at 72 hr, a ˜1.5 fold increase in EAAT2 protein levels could still be detected (data not shown). In addition, Compound 212320-induced EAAT2 protein levels and glutamate uptake were both dose-dependent (FIG. 8C). This induction was not due to transcriptional activation because EAAT2 mRNA was not increased as measured by quantitative real-time RT-PCR (FIG. 8D). We compared ceftriaxone (200 mg/kg), which increases EAAT2 expression through transcriptional activation, with Compound 212320 (40 mg/kg) that activates EAAT2 translation.

[7] = tested on: APPSw/Ind transgenic mice; assay: Alzheimer's disease model, Y-maze test; assay type: in vivo, mouse; settings: 40 mg/kg i.p. daily for 10 days, 7-month-old mice
Experimental: Compound 212320 was evaluated in APPSw/Ind transgenic mice, an Alzheimer's disease model. […] 7-month-old mice were treated with 40 mg/kg of Compound 212320 by intraperitoneal injection daily for 10 days and then evaluated the effects on short-term memory by Y-maze test. Compound 212320 restored short-term memory loss in APP mice after 10-day treatment (23 wild-type mice, 21 APP mice).
APPSw/Ind transgenic mice were treated with Compound 212320 at 40 mg/kg or vehicle intraperiotoneally beginning at 7 months after symptoms of memory loss are apparent. After daily treatment for 10 days, Y-maze was used to measure effects on short-term memory.

[8] = molecular target: T1, CYP1A2 (Homo sapiens, UniProt P05177); assay: In vitro side effect profiling: CYP1A2; assay type: in vitro ADME; settings: duplicate, read-out: inhibition on cytochrome p450 CYP1A2
T1 sequence (P05177 1-516): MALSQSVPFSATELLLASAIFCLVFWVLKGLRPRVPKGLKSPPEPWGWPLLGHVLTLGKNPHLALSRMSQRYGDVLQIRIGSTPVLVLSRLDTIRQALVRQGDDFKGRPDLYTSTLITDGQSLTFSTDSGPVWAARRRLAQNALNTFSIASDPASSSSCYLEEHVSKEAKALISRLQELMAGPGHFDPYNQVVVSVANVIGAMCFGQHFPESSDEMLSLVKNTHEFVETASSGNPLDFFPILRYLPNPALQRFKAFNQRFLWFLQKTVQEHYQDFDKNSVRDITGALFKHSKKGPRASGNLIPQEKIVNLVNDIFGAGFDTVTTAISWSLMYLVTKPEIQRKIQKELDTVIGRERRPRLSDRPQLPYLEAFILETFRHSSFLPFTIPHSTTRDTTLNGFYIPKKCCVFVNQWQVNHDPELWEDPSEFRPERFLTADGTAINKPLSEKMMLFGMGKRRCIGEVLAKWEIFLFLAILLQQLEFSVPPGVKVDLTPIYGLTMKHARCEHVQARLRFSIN
Experimental: as §1

[9] = tested on: EAAT2; assay: EAAT2 protein levels and glutamate uptake in forebrain plasma membrane vesicles after i.p. administration; assay type: in vivo, mouse; settings: for EAAT2 protein levels increase / Glutamate uptake increase: single i.p. 40 mg/kg
Experimental: as §3

[10] = from 8 hr to 24 hr post-injection

Cc1ccccc1CSc1ccc(-c2ccccn2)nn1 [Compound 7-4]
inhibition on calcium channel L-type [1]: 43%
Glutamate uptake function [2]: correlated to increased EAAT2 protein levels
Kp ([3]; male, C57Bl/6, mouse, brain, all time points tested, read-out: average brain-to-plasma ratio): ~2
half-life ([3]; male, C57Bl/6, mouse, brain, read-out: Brain half-life (converted)): 2.64 h
half-life ([3]; male, C57Bl/6, mouse, plasma, read-out: Plasma half-life (converted)): 2.63 h
Cmax ([3]; mouse, in vivo, male C57Bl/6 mice): 42.1 ± 3.6 ng/mL
Activity on all other kinases tested [4]: insignificant activity
EAAT2 mRNA levels [5]: not changed
EAAT2 mRNA [6]: not increased
Short-term memory loss (Y-maze test) [7]: restored
inhibition at 10 µM [8]: 69%
EAAT2 induction compared with ceftriaxone ([9]; 40 mg/kg vs ceftriaxone 200 mg/kg, a single dose after 24 hr): greater EAAT2 induction than ceftriaxone
Induced EAAT2 protein levels, dose dependence ([9]; FIG. 8C): dose-dependent
Induced glutamate uptake, dose dependence ([9]; FIG. 8C): dose-dependent
EAAT2 protein levels increase ([9]; 2 hr post-injection): 1.5-2 fold
Glutamate uptake increase ([9]; 2 hr post-injection): 1.5-2 fold
EAAT2 protein levels increase ([9]; 72 hr, data not shown): ~1.5 fold
EAAT2 protein levels increase [9, 10]: 2-3 fold
Glutamate uptake increase [9, 10]: 2-3 fold
